Results reported in patent US20110118288A1, “PHARMACEUTICAL COMPOSITION FOR TREATING HYPERTENSION AND METABOLIC SYNDROME AND USE THEREOF” (priority 2008, published 2011).

Key:
[1] = test system: spontaneously hypertensive rats; assay: Tail arterial blood pressure of conscious spontaneously hypertensive rats; type: in vivo, rat; details: for blood pressure, after treatment, eighth week / blood pressure, after treatment, fifth week / blood pressure, after treatment, first week / blood pressure, after treatment, third week: SHR, intragastric once every day, 2-5 h after administration; for blood pressure, before treatment: spontaneously hypertensive rats, baseline before treatment, n = 11
Description: Model control group: intragastric administration of same volume of physiological saline; P group: 0.5 mg/(kg·d) of pioglitazone; L group: 5 mg/(kg·d) of losartan; R group: 0.5 mg/(kg·d) of rosuvastatin calcium; L+R group: 5 mg/(kg·d) of losartan+0.5 mg/(kg·d) of rosuvastatin calcium; P+R group: 0.5 mg/(kg·d) of pioglitazone+0.5 mg/(kg·d) of rosuvastatin calcium; L+P group: 5 mg/(kg·d) of losartan+0.5 mg/(kg·d) of pioglitazone; […] Each group was given intragastric administration once every day for ten weeks. During the experiment, the diet, survival status and behaviors of the animals were recorded, and the animals were weighed once every day and the doses of administration were adjusted according to the body weights. Animals were sacrificed after ten weeks, and their hearts were taken out to determine the weights of left ventricles and calculate left ventricular indexes. Temperature was controlled between 18° C. and 22° C., humidity was controlled between 45% and 65%, and indoor natural light was used. Tail arterial blood pressure of a conscious rat was measured with Intelligent Non-invasive Blood Pressure Monitor BP-2006A (provided by Beijing Softron Co., Ltd.). Blood pressures were measured five times between two and five hours after intragastric administration in the first week, the third week, the fifth week and the eighth week, respectively. The average value of the blood pressures was used as the blood pressure of the sample.

[2] = test system: spontaneously hypertensive rats; assay: Cardiac hypertrophy (left ventricular weight/body weight) in spontaneously hypertensive rats; type: in vivo, rat; details: SHR, after ten weeks of intragastric administration once every day
Description: Each group was given intragastric administration once every day for ten weeks. During the experiment, the diet, survival status and behaviors of the animals were recorded, and the animals were weighed once every day and the doses of administration were adjusted according to the body weights. Animals were sacrificed after ten weeks, and their hearts were taken out to determine the weights of left ventricles and calculate left ventricular indexes. After being sacrificed with 10% potassium chloride (2 mmol/L, 1 ml/rat), the rats were weighed. Heart was taken out and aortas and connective tissues outside of the heart were removed. The heart was cleaned by washing, dried with a filter paper, and weighed. The left ventricular was weighed after the atria were removed, and a ratio of left ventricular weight to body weight was calculated.

[3] = test system: spontaneously hypertensive rats; assay: Urinary microalbumin (bromophenol blue absorbance) in spontaneously hypertensive rats; type: in vivo, rat; details: SHR, high sugar and high fat diets, intragastric once every day, twelve-hour overnight urine; time point not given in table
Description: Model control group: intragastric administration of same volume of physiological saline; […] L group: 5 mg/(kg·d) of losartan; R group: 1 mg/(kg·d) of rosuvastatin group; L+R group: 5 mg/(kg·d) of losartan+1 mg/(kg·d) of rosuvastatin calcium; P+R group: 1.5 mg/(kg·d) of pioglitazone+1 mg/(kg·d) of rosuvastatin calcium; L+P group: 5 mg/(kg·d) of losartan+1.5 mg/(kg·d) of pioglitazone; […] Each group was given intragastric administration once every day and fed with high sugar and high fat diets for six months. During the experiment, the diet, survival status and behaviors of the animals were recorded, and the animals were weighed once every day and the doses of administration were adjusted according to the body weights. 1. 10% (v/v) glacial acetic acid solution (pH 2.8). 2. 0.303 mol/L glycine-glacial acetic acid buffer solution (pH 3.0): 22.72 g of glycine was weighed and diluted with 10% glacial acetic acid solution to 1000 ml, to which 100 mg of NaN3 was added. The buffer solution can be kept for one year at room temperature after sealed. 3. Bromophenol blue (1.924 mmol/L) stock solution: 257.36 mg of BPB was precisely weighed and dissolved to 200 ml with absolute ethanol. The stock solution can be kept for one year in a refrigerator at 4° C. 4. Bromophenol blue (0.231 mmol/L) developing agent: to 60 ml of BPB stock solution, 2.5 ml Triton X-100 was added, and then diluted to 500 ml with glycine-glacial acetic acid buffer solution. The developing agent can be kept for one year at room temperature after sealed. Collection and detection of samples: rats were taken out and fed in a metabolic cage at the fourth week, the eighth week, the twelfth week and the sixteenth week, respectively, and twelve-hour overnight urinary collection was performed. Urinary amounts were precisely recorded. 4 ml of urine was sampled, treated with sodium azide, and centrifuged at 2000 r/min for 10 min.

[4] = test system: spontaneously hypertensive rats; assay: Carotid intima-media thickness in spontaneously hypertensive rats; type: in vivo, rat; details: SHR carotid artery, high sugar and high fat diets, intragastric once every day for six months
Description: Each group was given intragastric administration once every day and fed with high sugar and high fat diets for six months. During the experiment, the diet, survival status and behaviors of the animals were recorded, and the animals were weighed once every day and the doses of administration were adjusted according to the body weights. After the animal was anesthetized and fixed, Even's blue (60 mg/kg) dye was injected via a femoral artery. After 30 minutes, myocardial perfusion was performed with 0.9% physiological saline as a perfusate at a perfusion pressure of 13.3 kPa until the effluent became clear. Then, 4% paraformaldehyde in physiological saline was perfused for 10 minutes for in situ fixation (the perfusion pressure was the same as above). The section of Even's blue-stained carotid artery was taken and further fixed with formalin solution, and three parts, i.e. the front, the middle and the rear parts, respectively, were sampled and embedded in paraffin, and then sliced discontinuously to obtain 8 to 10 layers, which were stained with HE. Three vascular sections were randomly selected and input into a computer image processing system so as to perform a computerized image measurement, thereby calculating the intima-media thickness.

[5] = test system: metabolic syndrome patients; assay: Treatment of patients suffered from metabolic syndrome (FBG, FINS, HbAlC, TC/HDLC, Fg); type: in vivo, human
From the text: Sixth-four metabolic syndrome patients were selected from those received treatment in Linyi People's Hospital from March 2007 to June 2008, and randomly divided into a control group and an experimental group. Control group: twenty-one males and eleven females, whose ages were between 61 and 72 and whose body mass indexes (BMI) were between 26 and 30; Experimental group: nineteen males and thirteen females, whose ages were between 62 and 70 and whose body mass indexes (BMI) were between 25.5 and 31; Before the treatment, all patients were subjected to blood lipids (including total cholesterol (TC), high-density lipid cholesterol (HDLC)) analysis, and detection of glycated hemoglobin (HbAlC), fasting blood glucose (FBG), fasting insulin (FINS) and fibrinogen (Fg). […] After eight weeks of continuous treatment, all of the above parameters were re-determined, in which blood glucose was determined with hexokinase method, blood lipid was determined with esterase method, fibrinogen was determined with coagulation method and chromogenic substrate assay, HbAlC was determined with chromatography, and fasting insulin was determined with chemiluminescence immunoassay. Statistical analysis: SPSS software was employed, and test of significance was performed by using a paired sample t test.

[6] = once every day, after eight weeks

| SMILES | blood pressure, after treatment, eighth week [1] | blood pressure, after treatment, fifth week [1] | blood pressure, after treatment, first week [1] | blood pressure, after treatment, third week [1] | blood pressure, before treatment [1] | Left ventricular weight [2] | Left ventricular weight/body weight (×10^-3) [2] | urinary microalbumin, Absorbance A (600 nm) [3] | Maximum intima thickness [4] | Ratio of intima to media thickness [4] | FBG, before treatment ([5]; before treatment) | FINS, before treatment ([5]; before treatment) | Fg, before treatment ([5]; before treatment) | HbAlC, before treatment ([5]; before treatment) | TC/HDLC, before treatment ([5]; before treatment) | FBG, after treatment [5, 6] | FINS, after treatment [5, 6] | Fg, after treatment [5, 6] | HbAlC, after treatment [5, 6] | TC/HDLC, after treatment [5, 6] |
| --- | --- | --- | --- | --- | --- | --- | --- | --- | --- | --- | --- | --- | --- | --- | --- | --- | --- | --- | --- | --- |
| CCc1ccc(CCOc2ccc(CC3SC(=O)NC3=O)cc2)nc1 (stereo not shown) [P group, pioglitazone] | 172 mmHg | 171 mmHg | 172 mmHg | 168 mmHg | 172 mmHg | 0.986 g | 3.30 ×10^-3 | 0.5714 | 0.0958 mm | 1.8325 | 7.11 mmol/L | 31.5 mlU/L | 426.3 mg/dL | 6.92% | 4.25 | 6.69 mmol/L | 24.36 mlU/L | 390.8 mg/dL | 6.33% | 3.84 |
| CC(C)c1nc(N(C)S(C)(=O)=O)nc(-c2ccc(F)cc2)c1/C=C/[C@@H](O)C[C@@H](O)CC(=O)O [R group, rosuvastatin calcium] | 169 mmHg | 170 mmHg | 166 mmHg | 168 mmHg | 168 mmHg | 0.960 g | 3.16 ×10^-3 | 0.5672 | 0.1153 mm | 2.0754 |  |  |  |  |  |  |  |  |  |  |
| CCCCc1nc(Cl)c(CO)n1Cc1ccc(-c2ccccc2-c2nn[nH]n2)cc1 [L group, losartan] | 156 mmHg | 155 mmHg | 168 mmHg | 162 mmHg | 171 mmHg | 0.873 g | 2.90 ×10^-3 | 0.6132 | 0.0926 mm | 1.8055 |  |  |  |  |  |  |  |  |  |  |
